Literature values, collected in patent US20050043786A1, “Methods and apparatus for treatment of aneurysmal tissue” (Medtronic AVE, Inc., priority 2003, published 2005).

Conditions: for route of clearance / elimination: in vivo

Structure (SMILES)	route of clearance / elimination	other results
C[C@H](CS)C(=O)N1CCC[C@H]1C(=O)O [captopril]		bioavailability (given orally): about 75%
CCC(=O)O[C@@H](O[P@](=O)(CCCCc1ccccc1)CC(=O)N1C[C@H](C2CCCCC2)C[C@H]1C(=O)O)C(C)C [fosinopril]	balanced elimination by the liver and kidneys	
CCOC(=O)[C@H](CCc1ccccc1)N[C@@H](C)C(=O)N1CC2(C[C@H]1C(=O)O)SCCS2 [spirapril]	balanced elimination by the liver and kidneys	
NCCCC[C@H](N[C@@H](CCc1ccccc1)C(=O)O)C(=O)N1CCC[C@H]1C(=O)O [lisinopril]		time of peak concentrations in the plasma (oral administration): about 7 hours
